# Target: α1-adrenergic receptor
# Assay: Test of the bond to the α1-adrenergic receptor (inhibition of [3H]prazosin bond to rat cerebral cortex)
# Format: binding, rat (male Sprague Dawley)
# Conditions: [3H]prazosin 0.2 nM, rat cerebral cortex membranes, 30 min, 25° C., pH 7.7
# Experimental: The cerebral cortices of male Sprague Dawley rats are homogenized at 4° C. in Tris-HCl 50 mM pH=7.7 and centrifuged at 50,000 g for 30 minutes at 4° C. The pellets are again suspended in the same buffer and centrifuged again at 50,000 g for 30 minutes at 4° C.
# The filters are rinsed three times with the same buffer at 0-4° C. and their radioactivity is tested by liquid scintillation spectrometry.
# The specific bonds are obtained by subtracting the non-specific bonds (determined in the presence of 10 μM of phentolamine (Sigma Chemical Co. St. Louis Mo.)) from the total bonds. The data relative to the bonds is analyzed by computer assisted iterative non-linear regression analysis, using the Ligand program (Munson, P. J., Rodbard, D. Anal. Biochem. 107:220 (1980)).
row,Ki,SMILES
1,74 nM,"CCC(CC)(C(=O)NCCCN1CCN(c2cc(C)ccc2C)CC1)c1ccccc1 [Compound 26, N-[3-{4-(2,5dimethylphenyl)-1-piperazinyl}-propyl]-2-ethyl-2-phenyl-butyramide]"
2,98 nM,"Cc1ccc(C)c(N2CCN(CCCNC(=O)C(C)(c3ccccc3)c3ccccc3)CC2)c1 [Compound 23, N-[3-{4-(2,5-dimethylphenyl)-1-piperazinyl}-propyl]-α-methyl-α-phenyl-benzeneacetamide]"
3,69 nM,"CCSC(C(=O)NCCCN1CCN(c2cc(C)ccc2C)CC1)(c1ccccc1)c1ccccc1 [Compound 24, N-[3-{4-(2,5dimethylphenyl)-1-piperazinyl}-propyl]-α-ethylthio-α-phenyl-benzeneacetamide]"
4,43 nM,"Cc1ccc(C)c(N2CCN(CCCNC(=O)C(C)(O)c3cccc(Cl)c3)CC2)c1 (racemic) [Compound 31, (±)-3-chloro-N-[3-{4-(2,5-dimethylphenyl)-1-piperazinyl}-propyl]-α-hydroxy-α-methyl-benzeneacetamide]"
5,67 nM,"Cc1ccc(C)c(N2CCN(CCCNC(=O)C(C)(O)c3ccccc3Cl)CC2)c1 (racemic) [Compound 29, (±)-2-chloro-N-[3-{4-(2,5-dimethylphenyl)-1-piperazinyl}-propyl]-α-hydroxy-α-methyl-benzeneacetamide]"
6,73 nM,"Cc1ccc(C)c(N2CCN(CCCNC(=O)C(C)(O)c3cccc(-c4ccccc4)c3)CC2)c1 (racemic) [Compound 44, (±)-N-[3-{4-(2,5-dimethylphenyl)-1-piperazinyl}-propyl]-α-hydroxy-α-methyl-1,1'-biphenyl-3-acetamide]"
7,90 nM,"Cc1ccc(C)c(N2CCN(CCCN(C)C(=O)C(c3ccccc3)c3ccccc3)CC2)c1 [Compound 35, N-[3-{4-(2,5-dimethylphenyl)-1piperazinyl}-propyl]-N-methyl-α-phenyl-benzeneacetamide]"
8,36 nM,"CCCCC(O)(C(=O)NCCCN1CCN(c2cc(C)ccc2C)CC1)c1ccccc1 (racemic) [Compound 28, (±)-N-[3-{4-(2,5-dimethylphenyl)-1-piperazinyl}-propyl]-2-hydroxy-2-phenyl-hexanamide]"
9,50 nM,"Cc1ccc(C)c(N2CCN(CCCNC(=O)C(NC(=O)Cc3ccccc3)c3ccccc3)CC2)c1 (racemic) [Compound 49, (±)-N-[3-{4-(2,5-dimethylphenyl)-1-piperazinyl}-propyl]-α-benzylcarbonylamino-benzeneacetamide]"
10,110 nM,"COC(C)(C(=O)NCCCN1CCN(c2cc(C)ccc2C)CC1)c1ccccc1 (racemic) [Compound 51, (±)-N-[3-{4-(2,5-dimethylphenyl)-1-piperazinyl}-propyl]-α-methoxy-α-methyl-benzeneacetamide]"
11,44 nM,"Cc1ccc(C)c(N2CCN(CCCNC(=O)C(C)(O)c3ccc(Cl)cc3)CC2)c1 (racemic) [Compound 30, (±)-4-chloro-N-[3-{4-(2,5-dimethylphenyl)-1-piperazinyl}-propyl]-α-hydroxy-α-methyl-benzeneacetamide]"
12,51 nM,"Cc1ccc(C)c(N2CCN(CCCNC(=O)C(C)(OCc3ccccc3)c3ccccc3)CC2)c1 (racemic) [Compound 52, (±)-N-[3-{4-(2,5-dimethylphenyl)-1-piperazinyl}-propyl]-α-benzyloxy-α-methyl-benzeneacetamide]"
13,51 nM,"Cc1ccc(C)c(N2CCN(CCCNC(=O)C(N)c3ccccc3)CC2)c1 (racemic) [Compound 32, (±)-a-amino-N-[3-{4-(2,5-dimethylphenyl)-1-piperazinyl}-propyl]-benzeneacetamide]"
14,29 nM,"Cc1ccc(C)c(N2CCN(CCCNC(=O)C(C)(O)c3ccc4ccccc4c3)CC2)c1 (racemic) [Compound 43, (±)-N-[3-{4-(2,5-dimethylphenyl)-1-piperazinyl}-propyl]-α-hydroxy-α-methyl-2-naphthaleneacetamide]"

# The remaining lines, values behind:
row,SMILES,Ki
1,"Cc1ccc(C(C)(O)C(=O)NCCCN2CCN(c3cc(C)ccc3C)CC2)cc1 (racemic) [Compound 41, (±)-N-[3-{4-(2,5-dimethylphenyl)-1-piperazinyl}-propyl]-α-hydroxy-α-methyl-4-methyl-benzeneacetamide]",27 nM
2,"CCCc1ccccc1N1CCN(CCCNC(=O)C(O)(c2ccccc2)c2ccccc2)CC1 (racemic) [Compound 56, (±)-N-[3-{4-(2-(propyl)-phenyl)-1-piperazinyl}-propyl]-α-hydroxy-α-phenyl-benzeneacetamide]",25 nM
3,"Cc1cccc(N2CCN(CCCNC(=O)C(O)(c3ccccc3)c3ccccc3)CC2)c1C [Compound 4, N-[3-{4-(2,3-dimethylphenyl)-1-piperazinyl}-propyl]-α-hydroxy-α-phenyl-benzeneacetamide]",66 nM
4,"Cc1ccc(C)c(N2CCN(CCCNC(=O)C(c3ccc(Cl)cc3)c3ccc(Cl)cc3)CC2)c1 [Compound 21, 4-chloro-a-(4-chlorophenyl)-N-[3-{4-(2,5-dimethylphenyl)-1-piperazinyl}-propyl]-benzeneacetamide]",64 nM
5,"COc1ccccc1N1CCN(CCCNC(=O)C(O)c2ccccc2)CC1 (racemic) [Compound 19, (±)-α-hydroxy-N-[3-{4-(2-methoxyphenyl)-1-piperazinyl}-propyl]-benzeneacetamide]",60 nM
6,"Cc1ccc(N2CCN(CCCNC(=O)C(O)(c3ccccc3)c3ccccc3)CC2)c(C)c1 [Compound 5, N-[3-{4-(2,4-dimethylphenyl)-1-piperazinyl}-propyl]-α-hydroxy-α-phenyl-benzeneacetamide]",60 nM
7,"Cc1ccc(N2CCN(CCCNC(=O)C(O)(c3ccccc3)c3ccccc3)CC2)cc1 [Compound 3, α-hydroxy-N-[3-{4-(4-methylphenyl)-1-piperazinyl}-propyl]-α-phenyl-benzeneacetamide]",60 nM
8,"Cc1cccc(N2CCN(CCCNC(=O)C(O)(c3ccccc3)c3ccccc3)CC2)c1 [Compound 1, α-hydroxy-N-[3-{4-(3-methylphenyl)-1-piperazinyl}-propyl]-α-phenylbenzeneacetamide]",51 nM
9,"Cc1ccc(C)c(N2CCN(CCCNC(=O)C(NS(C)(=O)=O)c3ccccc3)CC2)c1 (racemic) [Compound 33, (±)-N-[3-{4-(2,5-dimethylphenyl)-1-piperazinyl}-propyl]-α-(methylsulphonylamino)-benzeneacetamide]",40 nM
10,"COc1ccc(CC(C)(O)C(=O)NCCCN2CCN(c3cc(C)ccc3C)CC2)cc1 (racemic) [Compound 34, (±)-N-[3-{4-(2,5-dimethylphenyl)-1-piperazinyl}-propyl]-2-hydroxy-2-methyl-4-methoxy-benzenepropionamide]",45 nM
11,"CCC(O)c1ccccc1N1CCN(CCCNC(=O)C(c2ccccc2)c2ccccc2)CC1 (racemic) [Compound 36, (±)-N-[3-{4-(2-(1-hydroxypropyl)-phenyl)-1-piperazinyl}-propyl]-α-phenyl-benzeneacetamide]",170 nM
12,"Cc1ccc(C)c(N2CCN(CCCNC(=O)C(C)(C)O)CC2)c1 (racemic) [Compound 54, (±)-N-[3-{4-(2,5-dimethylphenyl)-1-piperazinyl}-propyl]-2-hydroxy-2-methyl-propionamide]",280 nM
13,"COc1ccccc1N1CCN(CCCNC(=O)C(c2ccccc2)C2CCCCC2)CC1 (racemic) [Compound 18, (±)-α-cyclohexyl-N-[3-{4-(2-methoxyphenyl)-1-piperazinyl}-propyl]-benzeneacetamide]",55 nM
14,"COc1ccc(C(C)(O)C(=O)NCCCN2CCN(c3cc(C)ccc3C)CC2)cc1 (racemic) [Compound 40, (±)-N-[3-{4-(2,5-dimethylphenyl)-1-piperazinyl}-propyl]-α-hydroxy-α-methyl-4-methoxy-benzeneacetamide]",38 nM
15,"Cc1cccc(C)c1N1CCN(CCCNC(=O)C(O)(c2ccccc2)c2ccccc2)CC1 [Compound 6, N-[3-{4-(2,6-dimethylphenyl)-1-piperazinyl}-propyl]-a-hydroxy-a-phenyl-benzeneacetamide]",480 nM
16,"O=C(NCCCN1CCN(c2ccccc2C(O)C2CC2)CC1)C(c1ccccc1)c1ccccc1 (racemic) [Compound 55, (±)-N-[3-{4-(2-(cyclopropylhydroxymethyl)-phenyl)-1-piperazinyl}-propyl]-α-phenyl-benzeneacetamide]",300 nM
